Three molecules from PMC12723449, “From Pharmacophore to Warhead: NAD^+‐Targeting Triazoles as Mechanism‐Based Sirtuin Inhibitors” (Angewandte Chemie (International Ed. in English), 2025) can be followed below.

Test [1] has as its target T1, SIRT2 (Homo sapiens, UniProt Q8IXJ6).
T1 construct: For assay experiments, strep-tagged human SIRT1134−747 and SIRT256-356 were expressed and purified as previously; Strep-tag; made in house; host or cells: E. coli BL21 Star (DE3)
T1 sequence (Q8IXJ6 56-356 limits assumed): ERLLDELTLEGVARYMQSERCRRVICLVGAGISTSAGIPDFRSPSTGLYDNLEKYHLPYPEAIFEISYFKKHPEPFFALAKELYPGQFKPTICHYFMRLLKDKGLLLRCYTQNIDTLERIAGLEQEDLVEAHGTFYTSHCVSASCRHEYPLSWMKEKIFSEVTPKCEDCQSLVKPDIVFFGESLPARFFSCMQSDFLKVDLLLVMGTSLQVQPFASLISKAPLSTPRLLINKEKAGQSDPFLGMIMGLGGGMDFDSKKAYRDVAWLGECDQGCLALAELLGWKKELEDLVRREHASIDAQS
As to the kind of experiment: CE-ESI-MS analysis of adducts formed in vitro. It counts as biochemical. The settings on record: SIRT2 incubated with NAD+ and compound, thermal denaturation. The procedure: Capillary electrophoresis–electrospray ionization–mass spectrometry (CE-ESI-MS) analysis of […]
Analysis of the enzymatic products were performed using a capillary electrophoresis coupled to mass spectrometry method (CE-MS) described first in the separation of inositol (pyro)phosphates.[11] CE (Agilent 7100 CE system) was coupled to a time-of-flight mass spectrometry Agilent 6545 system and ionization was performed with a commercially available Agilent Jet Stream (AJS) electrospray ionization (ESI) source. An Agilent liquid coaxial interface was used and the ionization spray was stabilized with a water-isopropanol (1:1 v/v) mixture as sheath liquid. The sheath liquid was pumped with an Agilent 1200 isocratic LC pump, using a 1:100 splitter and resulting in a flow of 1.5 µl/min.
A mixture of SIRT256-356 (final concentration of 11 mg/mL) in SEC buffer, compound 1 or 7 (3.33 mM of inhibitor with a final DMSO concentration of 3.33 % (v/v)) and NAD+ (final concentration of 10 mM) were incubated for 90 min and centrifuged for 5 min to remove inhibitor precipitate. Following SIRT2 denaturation at 65 °C for 1 min and centrifugation for 5 min to remove precipitated protein, 20 nL of each sample was injected under 100 mbar pressure for 20 s. […] Analytes were detected in negative ionization mode, a capillary voltage of -3000 V and an ESI spray current of 2.1 µA. […]

Test [2] addresses T1, SIRT2. The experiment in a line: Differential scanning fluorimetry (DSF) / fluorescence thermal shift assay. The class given is binding. In general terms: In DSF a fluorescence change marks the thermal transition of the protein.
Procedure: Differential scanning fluorimetry (DSF) assay
Differential scanning fluorimetry assays were performed in white 96-well plates (Hard-Shell PCR Plates, BioRad, USA) with a total volume of 20 µL per well and a final DMSO concentration of 5% (v/v), following a published
A solution of 10 µL SIRT2 (final concentration of 6.0 µM) and SYPRO Orange (5x, Sigma-Aldrich, Germany) in assay buffer (25 mM Tris-HCl, 150 mM NaCl, 1 mM DTT, pH 8.0) was mixed with 10 µL of compound and incubated at 25 °C and 350 rpm for 5 min. Where applicable, NAD+ was added to a final concentration of 2.5 mM. Fluorescence
(C1000 Touch™ Thermal Cycler, CFX96™ Real-Time System, BioRad, USA). Melting temperatures were determined using GraphPad Prism, following a published procedure.[6]

`Cc1cc(C)nc(SCC(=O)Nc2ncc(Cc3cccc(OCc4c[nH]nn4)c3)s2)n1` [Compound 7]: the “ADPR adduct detected in solution by CE-ESI-MS” value at SIRT2 [1] is given as “confirmed release of 7–ADPR”.
Consider `COCCn1cc(COc2cccc(Cc3cnc(NC(=O)CSc4nc(C)cc(C)n4)s3)c2)nn1` [Compound 1, reference compound], for which the “ADPR adduct detected in solution by CE-ESI-MS” value on SIRT2 [1] is “undetectable”. The “NAD+-dependent thermal stabilization of SIRT2” value at SIRT2 [2] (upon NAD+ addition) is recorded as “pronounced NAD^+‐dependent thermal stabilization”.
One may read the ΔTm as the change in melting temperature against a reference sample. On to `CCCCCCCCCCCCc1cn(CCCC[C@H](NC(=O)[C@H](CCCCN)NC(=O)[C@@H]2CCCN2C(=O)[C@H](CC(C)C)NC(=O)[C@H](C)NC(=O)[C@H](CCC(=O)O)NC(C)=O)C(=O)N[C@H](C(=O)NCC(=O)NCC(N)=O)[C@@H](C)O)nn1` [Compound 6], for which, at SIRT2 [2] (10 µM compound, with NAD+ addition), the ΔTm at 10 µM is 16.3 ± 0.1 °C.
